Source: paper PMC2576538 (The Journal of Biological Chemistry, 2008)
Ends that are not written are not given here. * marks the point of attachment. Biotin = O=C1N[C@H]2[C@H](CS[C@H]2CCCCC(=O)*)N1

T1: GST-claudin-4, full length (mouse, UniProt O35054 1-210)
T1 sequence: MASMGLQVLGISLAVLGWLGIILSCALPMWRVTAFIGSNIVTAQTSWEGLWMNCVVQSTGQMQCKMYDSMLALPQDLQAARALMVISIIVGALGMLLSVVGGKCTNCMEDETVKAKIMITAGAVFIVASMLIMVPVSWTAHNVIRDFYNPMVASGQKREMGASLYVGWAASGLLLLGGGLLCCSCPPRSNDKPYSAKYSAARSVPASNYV


Columns and labels:
Cpe30 peptide = assay type: binding, Clostridium perfringens
[1] = biological target: Biotin-Cpe30 (Clostridium perfringens) (UniProt P01558); test: SPR
[2] = biological target: Cpe17 (last C-terminal 17 amino acids of Cpe), biotinylated (Clostridium perfringens) (UniProt P01558); test: SPR
[3] = biological target: T1, GST-claudin-4, full length; test: SPR

Molecule | Binding of immobilized Ecl2 peptide to Cpe30, in words (Cpe30 peptide) | also measured
AHNVIRDFYNPMVASGQKREMGASL [B-Ecl2-B] | does not bind | 
GST-Cldn-4.R4 (GST fused to claudin-4 from Ecl2 through the C terminus) (domain or fragment) |  | Kd [1]: 2.56 nM; Kd [2]: 1.57 nM
AHNVIRDFYNPMVASGQKREMGASL (disulfide (positions not given here)) [B-lariat-Ecl2] | does not bind | 
(138)AHNVIRDFYNPM VASGQKREMGASL(160) [B-Ecl2] | does not bind | 
Biotin-SLDAGQYVLVMKANSSYSGNYPYSILFQKF [Biotin-Cpe30] |  | binding result [3]: binds
